Source: ChEMBL document CHEMBL1123572, “Synthesis and antiarrhythmic activity of novel 3-alkyl-1-[omega-[4-[(alkylsulfonyl)amino]phenyl]-omega- hydroxyalkyl]-1H-imidazolium salts and related compounds. 2” (1987)
Values joined by “and” are separate entries in the source; they are usually repeats but may differ in a detail not shown here. Equal values may be shown once.

Assays:
[1] = species: Canis familiaris; experiment: In vitro activity in isolated canine cardiac Purkinje fibers given as 20 percent increase or decrease in action potential duration; type: functional, Canis lupus familiaris, Purkinje fiber
[2] = species: Canis familiaris; experiment: In vitro activity in isolated canine cardiac Purkinje fibers given as maximum change in APD95 from control value at 100 uM of concentration; type: functional, Canis lupus familiaris, Purkinje fiber
[3] = species: Canis familiaris; experiment: In vitro activity in isolated canine cardiac Purkinje fibers given as maximum change in APD95 from control value at 10 uM of concentration; type: functional, Canis lupus familiaris, Purkinje fiber
[4] = species: Canis familiaris; experiment: In vitro activity in isolated canine cardiac ventricular muscle tissue given as 20 percent increase or decrease in FRP (functional refractory period); set-up: species or system Canis lupus familiaris
[5] = species: Canis familiaris; experiment: In vitro electrophysiological activity in isolated canine cardiac ventricular muscle tissue given as maximum change in FRP from control value at 100 uM concentration; type: functional, Canis lupus familiaris
[6] = test system: Canis familiaris; experiment: The compound was evaluated the change in heart rate at 10 mg/kg active dose; type: functional, Canis lupus familiaris
[7] = species: Canis familiaris; experiment: The compound was evaluated for the change in blood pressure at MED for 0.3-30 dose range in PES model; type: functional, Canis lupus familiaris
[8] = test system: Canis familiaris; experiment: The compound was evaluated the change in blood pressure at 10 mg/kg active dose; type: functional, Canis lupus familiaris
[9] = species: Canis familiaris; experiment: The compound was evaluated for the mean effective dose for antiarrhythmic efficacy in PES model; type: functional; details: Canis lupus familiaris, Heart; read-out: MED
[10] = test system: Canis familiaris; experiment: The compound was evaluated the change in functional refractory period at 10 mg/kg active dose; set-up: species or system Canis lupus familiaris
[11] = species: Canis familiaris; experiment: The compound was evaluated for the change in heart rate at MED for 0.3-30 dose range in PES model.; type: functional, Canis lupus familiaris
[12] = species: Canis familiaris; experiment: The compound was evaluated for the change in heart rate at MED for 0.1-30 dose range in PES model; type: functional, Canis lupus familiaris
[13] = species: Canis familiaris; experiment: The compound was evaluated for the change in blood pressure at MED for 0.1-30 dose range in PES model; type: functional, Canis lupus familiaris
[14] = species: Canis familiaris; experiment: In vitro electrophysiological activity in isolated canine cardiac ventricular muscle tissue given as maximum change in FRP from control value at 100 uM concentration; NR = Not reached; type: functional; details: Canis lupus familiaris
[15] = species: Canis familiaris; experiment: The compound was evaluated for the change in heart rate at MED for 0.1-10 dose range in PES model; type: functional, Canis lupus familiaris
[16] = species: Canis familiaris; experiment: The compound was evaluated for the change in blood pressure at MED for 0.1-10 dose range in PES model; type: functional, Canis lupus familiaris
[17] = species: Canis familiaris; experiment: The compound was evaluated for the change in blood pressure at MED for 0.3-10 dose range in PES model; type: functional, Canis lupus familiaris
[18] = species: Canis familiaris; experiment: The compound was evaluated for the change in heart rate at MED for 0.3-10 dose range in PES model; type: functional, Canis lupus familiaris

## C[n+]1ccn(/C=C/c2ccc(O)cc2)c1.[Br-]
[1]
  C20 APD95: 10.2 µM
[2]
  APD95: 27%
[3]
  APD95: 23% and 20%

## C[n+]1ccn(CC(C)(O)c2ccc(NS(C)(=O)=O)cc2)c1.[Cl-] (configuration not stated)
[1]
  C20 APD95: 1.5 µM
[2]
  APD95: 71%
[4]
  C20 FRP: 24.3 µM
[5]
  FRP: 29%

## Cn1cc[n+](C)c1C(O)c1ccc(NS(C)(=O)=O)cc1.[I-] (configuration not stated)
[1]
  C20 APD95: 20.7 µM
[2]
  APD95: 37%
[5]
  FRP: 17%

## C[n+]1ccn(CCc2ccc(O)cc2)c1.[Cl-]
[1]
  C20 APD95: 6.2 µM
[2]
  APD95: 20%
[4]
  C20 FRP: 50.1 µM
[5]
  FRP: 7%
[3]
  APD95: 23%

## CC1=NCCN1CC(O)c1ccc(NS(C)(=O)=O)cc1.Cl (configuration not stated)
[1]
  C20 APD95: 0.6 µM
[6]
  HR: -23%
[2]
  APD95: 63%
[7]
  BP: -1%
[8]
  BP: 2%
[9]
  minimal effective dose: 2 mg/kg
[4]
  C20 FRP: 1.1 µM and 1.9 µM
[10]
  FRP: 22%
[11]
  HR: -21%
[5]
  FRP: 42% and 38%

## CC(C)NCC(O)c1ccc(NS(C)(=O)=O)cc1 (configuration not stated) [SOTALOL]
[12]
  HR: -23%
[1]
  C20 APD95: 14.4 µM
[6]
  HR: -11%
[2]
  APD95: 48%
[13]
  BP: -23%
[8]
  BP: 8%
[9]
  minimal effective dose: 1.4 mg/kg
[4]
  C20 FRP: 24.7 µM
[10]
  FRP: 16%
[5]
  FRP: 23%

## Cc1n2c(c[n+]1C)C(c1ccc(NS(C)(=O)=O)cc1)CCC2.[I-] (configuration not stated)
[1]
  C20 APD95: 46.6 µM
[14]
  FRP: Not reached
[2]
  APD95: 27%

## CCCCCCC[N+](CC)(CC)CCCCc1ccc(Cl)cc1 [CLOFILIUM]
[1]
  C20 APD95: 0.26 µM
[6]
  HR: -18%
[15]
  HR: -12%
[8]
  BP: -4%
[16]
  BP: 2%
[9]
  minimal effective dose: 0.63 mg/kg
[10]
  FRP: 22%
[5]
  FRP: 7%
[3]
  APD95: 39%

## CC(C(=O)c1ccc(NS(C)(=O)=O)cc1)n1cc[n+](C)c1.[Cl-] (configuration not stated)
[1]
  C20 APD95: 3 µM
[2]
  APD95: 65%
[4]
  C20 FRP: 7.7 µM
[5]
  FRP: 22%

## Cc1n2c(c[n+]1C)C(c1ccc(NS(C)(=O)=O)cc1)=CCC2.[I-]
[1]
  C20 APD95: 2.8 µM
[2]
  APD95: 38%
[4]
  C20 FRP: 2.9 µM
[5]
  FRP: 40%

## C[n+]1ccn(CC(O)c2ccc(NS(C)(=O)=O)cc2)c1.[Cl-] (configuration not stated)
[1]
  C20 APD95: 1.6 µM
[6]
  HR: -10%
[2]
  APD95: 50%
[17]
  BP: 0%
[8]
  BP: 5%
[18]
  HR: -23%
[9]
  minimal effective dose: 6.5 mg/kg
[4]
  C20 FRP: 5.9 µM
[10]
  FRP: 21%
[5]
  FRP: 31%

## CC(C(O)c1ccc(NS(C)(=O)=O)cc1)n1cc[n+](C)c1.[Cl-] (configuration not stated)
[1]
  C20 APD95: 4.2 µM
[2]
  APD95: 36%
[4]
  C20 FRP: 11.2 µM
[5]
  FRP: 31%

## CC1=NCCN1CC(=O)c1ccc(NS(C)(=O)=O)cc1
[1]
  C20 APD95: 1.3 µM
[2]
  APD95: 74%
[4]
  C20 FRP: 6.3 µM
[5]
  FRP: 38%

## CS(=O)(=O)Nc1ccc(C(=O)C[n+]2ccsc2)cc1.[Cl-]
[1]
  C20 APD95: 3.1 µM
[2]
  APD95: 80%
[4]
  C20 FRP: 10 µM
[5]
  FRP: 17%
